# According to the SangsterLogP compilation:
# What was measured:
# [1] = method code SF-AS, from DOI: 10.1248/bpb1978.7.120, PMID: 6427444
# [2] = method code SF, from DOI: 10.1016/j.nucmedbio.2007.12.009, PMID: 18355686; details: pH 7.4
# [3] = not given; remark: listed apart in the source
# [4] = method code SF-GLC, from DOI: 10.1023/a:1015803202857, PMID: 2395795
# [5] = method code SF-HPLC, from DOI: 10.1584/jpestics.11.469
# [6] = method code SF-AS, from DOI: 10.1002/jps.2600790421, PMID: 2352153
# [7] = method code SF-HPLC, from DOI: 10.1016/j.ejmech.2003.12.002, PMID: 15051170
# [8] = not given; remark: listed apart in the source
# [9] = method code RP-HPLC, from DOI: 10.1021/jm970292n, PMID: 9371243
# [10] = method code SF-AS, from DOI: 10.1016/j.arabjc.2011.11.013
# [11] = not given; remark: listed apart in the source
# [12] = method code SF-AS, from DOI: 10.1007/bf02857814, PMID: 1608986
# [13] = method code SF-AS, from DOI: 10.1016/s0026-895x(25)13808-x, PMID: 93689
# [14] = not given; remark: listed apart in the source
# [15] = method code SF-RC, from DOI: 10.1016/j.bmc.2015.06.036, PMID: 26145817; details: pH 7.4
# [16] = method code SF-AS, from DOI: 10.1016/s0014-827x(98)00024-x, PMID: 9679281
# [17] = not given; remark: listed apart in the source
# [18] = method code SF-HPLC, from DOI: 10.1016/0378-5173(94)90060-4; details: pH 5.0
# [19] = method code SF-AS, from Kourounakis, P.; Chilliard, N. (1983). Ionization constants and partition coefficients of some 1,1-diphenyl-1-alkoxy-3-dialkylamino-2-propanones with analgesic activity. Pharmazie, 38(6)388-389.; details: pH 7.4
# [20] = method code SF-RC, from DOI: 10.1016/j.bmc.2006.11.022, PMID: 17293116; details: pH 7.4
# [21] = method code SF, from PMID: 8999431; details: pH 7.4
# [22] = not given; remark: listed apart in the source
# [23] = not given; remark: listed apart in the source
# [24] = method code SF-AS, from DOI: 10.1002/chin.199708138, PMID: 8917646; details: pH 7.4
# [25] = method code SF-HPLC, from Thijssen, W. (1981). The relationship between Log P, Rm, log k' and the constants pi and f: a study on penicillins. Eur J Med Chem, 16(5)449-452.
# [26] = method code SF-AS, from PMID: 1586384
# [27] = method code SF-GR, from DOI: 10.1016/s0022-3565(25)32611-x, PMID: 7230009
# [28] = method code SF-HPLC, from DOI: 10.1016/j.jpba.2011.06.023, PMID: 21782368; details: pH 7.4
smiles,measurement,setting,value
CC(=O)[C@H]1CC[C@H]2[C@@H]3CC=C4C[C@@H](O)CC[C@]4(C)[C@H]3CC[C@]12C,logP,,4.22
CO[C@@]12[C@H](COC(N)=O)C3=C(C(=O)C(C)=C(N)C3=O)N1C[C@H]1[C@@H]2N1Cc1ccccc1 (stereo partly drawn),logP,[1],1.59
CC(=O)N(Cc1ccccc1OCCF)c1cnccc1Oc1ccccc1,logD,[2],2.99
CC1CC2C3CCC4=CC(=O)CCC4C3CCC2(C)C1C(=O)CO (stereo not drawn),logP,[3],4.02
CC(C)=CCN1CC[C@@]2(C)c3cc(O)ccc3C[C@@H]1[C@@H]2C,logP,[4],3.31
CO[C@@]12[C@H](COC(N)=O)C3=C(C(=O)C(C)=C(N)C3=O)N1C[C@H]1[C@@H]2N1C(=O)c1ccccc1,logP,[1],1.89
CCOC(=O)C(C)Oc1ccc(Oc2cnc3cc(C(F)(F)F)ccc3n2)cc1 (stereo not drawn),logP,[5],4.37
CC(C)[C@H](NC(=O)[C@H](c1ccccc1)N(CCCl)N=O)C(=O)NC(=O)NCCCl,logP,[6],3.32
CC1CC2C3CCC4=CC(=O)CCC4C3CCC2(C)C1C(=O)CF (stereo not drawn),logP,[3],4.66
COC(=O)C(C)NP(=O)(OCC1C=CC(n2cc(C)c(=O)[nH]c2=O)O1)Oc1ccc(N(C)C)cc1 (stereo not drawn),logP,[7],0.76
COc1cc2c(Nc3ccc(Cl)cc3F)ncnc2cc1OCCCN1CCN(C)CC1,logP,[8],3.3
CC(=O)Oc1cccc2cc3cccc(OC(C)=O)c3c(OC(C)=O)c12,logP,[9],2.02
Nc1ccc(S(=O)(=O)NCC(=O)Nc2ccc(Cl)cc2C(=O)c2ccccc2)cc1,logP,[10],3.24
CC(C)NCC(COc1cccc2ccccc12)OC(=O)C1CC1 (stereo not drawn),logP,[11],3.68
CCn1cc(C(=O)NC(CSSCC(N)C(=O)OC)C(=O)OC)c(=O)c2ccc(C)nc21 (stereo not drawn),logP,[12],0.91
CN1CCN(C2=Nc3cc(Cl)ccc3Nc3ccccc32)CC1,logP,[13],3.32
CC#CC1(O)CC[C@H]2[C@@H]3CCC4=CC(=O)CCC4=C3C(c3ccc(N(C)C)cc3)C[C@@]21C (stereo partly drawn),logP,[14],4.69
CCN(CCCCF)c1cc(C)nc2c(-c3ccc(Cl)cc3Cl)c(C)nn12,logD,[15],2.81
S=c1[nH]nc(Cn2ccc3ccccc32)n1-c1cccc2ccccc12,logP,[16],3.12
CC(C)(C)[C@]1(O)CCN2CC3c4ccccc4CCc4cccc(c43)C2C1 (stereo partly drawn),logP,[13],4.35
C=CCOc1ccccc1OCC(CNC(C)C)OC(=O)CCCC (stereo not drawn),logP,[17],4
CCCOC(=O)n1c(NC(=O)OC)nc2cc(C(=O)c3ccccc3)ccc21,logD,[18],3.43
COC(C(=O)N(C)C)(c1ccccc1)c1ccccc1,logD,[19],0.78
CNc1ccc(-c2nc3ccc(-c4nc5ccc(F)cc5s4)cc3s2)cc1,logD,[20],2.48
COc1ccc2nc(-c3ccc4nc(-c5ccc(N)cc5)sc4c3)sc2c1,logD,[20],1.56
CCn1cc(C(=O)NC(C(=O)OC)C(C)C)c(=O)c2ccc(C)nc21 (stereo not drawn),logD,[21],3.61
CC(C)[C@H](NC(=O)[C@H](Cc1ccccc1)N(CCCl)N=O)C(=O)NC(=O)NCCCl,logP,[6],3.46
CN(C)CCC=C1c2ccccc2CCc2ccccc21,logP,[22],5.04
CCN(CCOCCF)c1cc(C)nc2c(-c3ccc(Cl)cc3Cl)c(C)nn12,logD,[15],3.8
O=C1c2c(O)cccc2Cc2cccc(-c3ccccc3)c21,logP,[9],3.99
O=C(CNc1ccc([N+](=O)[O-])cc1)Nc1ccc(Cl)cc1C(=O)c1ccccc1,logP,[10],4.68
CN(C)CCC=C1c2ccccc2CSc2ccccc21,logP,[22],4.49
COc1cc2c(Nc3ccc(Cl)cc3F)ncnc2cc1OCCCN1CCOCC1,logP,[8],3.6
CN(C)CCC=C1c2ccccc2CCc2c(Cl)cccc21,logP,[23],5.55
CN(C)CC(=O)C(Oc1ccccc1)(c1ccccc1)c1ccccc1,logD,[19],1.57
O=C1CC[C@@](c2ccccc2)(C2CCN(Cc3ccccc3)CC2)C(=O)N1,logP,[23],3.55
C=CCOc1ccccc1OCC(CNC(C)C)OC(=O)/C=C/C (stereo not drawn),logP,[17],3.65
COC(=O)C1=C(C)NC(C)=C(C(=O)OCCOC(=O)C2=CN(C)C=CC2)C1c1cccc(Cl)c1Cl (stereo not drawn),logD,[24],2.56
Cc1onc(-c2ccccc2)c1C(=O)NC1C(=O)N2C1S(=O)C(C)(C)C2C(=O)O (stereo not drawn),logP,[25],1.8
CC(=O)OCOC(=O)c1cn2c3c(c(N4CCN(C)CC4)c(F)cc3c1=O)OCC2C (stereo not drawn),logP,[26],0.02
COC(=O)C1=C(C)NC(C)=C(C(=O)OCCO)C1c1cccc(Cl)c1Cl (stereo not drawn),logD,[24],2.37
CC1(C)[C@@H](O)C[C@H]2[C@](C)(O)[C@@H]3CC[C@@H]4[C@@H](O)[C@@]3(C[C@@H](O)[C@@]21O)C[C@@]4(C)O,logP,[27],0.27
CC(C)NCC(COc1cccc2ccccc12)OC(=O)C(C)C (stereo not drawn),logP,[11],3.52
COC(=O)C(C)NP(=O)(OCC1C=CC(n2cc(C)c(=O)[nH]c2=O)O1)Oc1cc(Cl)ccc1Cl (stereo not drawn),logP,[7],1.41
CC(=O)OC(C)OC(=O)c1cn2c3c(c(N4CCN(C)CC4)c(F)cc3c1=O)OCC2C (stereo not drawn),logP,[26],0.26
C[C@]12CC[C@@H]3c4ccc(O)cc4CC[C@H]3[C@@H]1C[C@@H](O)[C@@H]2O,logP,,2.45
CCOC(=O)C(C)Oc1ccc(Oc2cnc3ccccc3n2)cc1 (stereo not drawn),logP,[5],3.48
CC(C)OC(=O)CC(CNC(=O)OC(C)(C)C)c1ccc(Cl)cc1 (stereo not drawn),logD,[28],3.4
Cc1onc(-c2c(Cl)cccc2Cl)c1C(=O)NC1C(=O)N2C1SC(C)(C)C2C(=O)O (stereo not drawn),logP,[25],2.89
CC1(C)[C@H]2O[C@H]2[C@@H]2[C@]1(O)[C@H](O)[C@@H](O)C13C[C@@](C)(O)[C@@H](CC[C@@]1(O)[C@@]2(C)O)[C@@H]3O,logP,[27],-0.57
CCOC(=O)n1c(NC(=O)OC)nc2cc(C(=O)c3ccccc3)ccc21,logD,[18],2.93
OC(CCN1CCCCC1)(c1ccccc1)C1CCCCC1 (stereo not drawn),logP,[4],4.49
Cc1[nH]c2ccccc2c1Cc1nnc(Nc2cccc3ccccc23)s1,logP,[16],3.78
CCn1cc(C(=O)NC(Cc2c[nH]cn2)C(=O)OC)c(=O)c2ccc(C)nc21 (stereo not drawn),logP,[12],0.31
CCCOC(=O)CC(CNC(=O)OC(C)(C)C)c1ccc(Cl)cc1 (stereo not drawn),logD,[28],3
CC(=O)[C@@]1(C)CC[C@H]2[C@@H]3CCC4=CC(=O)CCC4=C3CC[C@@]21C,logP,[14],4.34
CCC(C)N(C)C(=O)c1cc2ccccc2c(-c2ccccc2Cl)n1 (stereo not drawn),logD,[2],4
CCC(C)C(NC(=O)c1cn(CC)c2nc(C)ccc2c1=O)C(=O)OC (stereo not drawn),logD,[21],2.64
